Where two headings read alike, the source gives them in different places.
Columns and labels:
[1] = test system: Leptosphaeria nodorum (LEPTNO); experiment: In vitro fungitoxicity of hydrazones with and without copper towards Leptosphaeria nodorum (Example 26); assay type: cell-based; details: 72 h at 25° C.; for inhibition of growth at 0.05 µg/mL: Parastagonospora nodorum, 72 h, copper-minus medium, read-out: LEPTNO % Inhn. Minus Copper Observed
[2] = test system: Phytophthora infestans; assay type: in vivo, Phytophthora infestans on tomato; details: applied 24 h before inoculation, assessed 7 days after inoculation
[3] = test system: Leptosphaeria nodorum (LEPTNO); experiment: Isolated metal-hydrazone complexes versus parent hydrazones, in vitro, Leptosphaeria nodorum (Example 31, Table 7); assay type: cell-based; details: Parastagonospora nodorum; 0.1 μg/mL; copper-minus medium; 72 h
[4] = test system: Phytophthora capsici; experiment: In vitro fungitoxicity of hydrazones with and without copper towards Phytophthora capsici (Example 28, Table 3); assay type: cell-based; details: 0.050 μg/mL, 48 h; for % Inhn Plus copper Observed: copper-plus AS medium (CuCl2, 50 μM); for inhibition of growth at 0.05 µg/mL: Phytophthora capsici, copper-minus AS medium, read-out: % Inhn Minus copper Observed
[5] = test system: Ustilago maydis; experiment: In vitro fungitoxicity of hydrazones with and without copper towards Ustilago maydis (Example 29, Table 4); assay type: cell-based; details: 1 μg/mL, 48 h; for % Inhn. Plus copper Observed: copper-plus medium (CuCl2, 10 μM); for inhibition of growth at 1 µg/mL: Mycosarcoma maydis, copper-minus medium, read-out: % Inhn. Minus copper Observed
[6] = test system: Septoria tritici isolate USA-184; experiment: In vitro fungitoxicity of hydrazones with and without copper towards Septoria tritici (Example 30, Table 5); assay type: cell-based; details: Zymoseptoria tritici, 0.05 μg/mL
[7] = test compound Concn. 0.05 μg/mL
[8] = copper-plus medium (CuCl2 10 μM), test compound Concn. 0.05 μg/mL
[9] = hydrazone 50 ppm with 50 μM CuCl2.2H2O, tomato late blight
[10] = compound 0.05 μg/mL, copper-plus medium (CuCl2.2H2O)
[11] = hydrazone 50 ppm + 50 μM CuCl2.2H2O, tomato
[12] = Colby formula, CuCl2, read-out: % Inhibition Plus copper Predicted
[13] = copper-minus medium, 90 h, read-out: % Inhibition Minus copper Observed
[14] = copper-plus medium CuCl2, 90 h, read-out: % Inhibition Plus copper Observed

Structure (SMILES) | inhibition of growth at 0.05 µg/mL [1, 7] [%] | LEPTNO % Inhn. Plus Copper Observed [1, 8] [%] | TLB % Control [2, 9] [%] | inhibition at 0.1 µg/mL [3] [%] | melting point [°C] | inhibition of growth at 0.05 µg/mL ([1]; compound 0.05 μg/mL) [%] | LEPTNO % Inhn. Plus Copper Observed [1, 10] [%] | TLB % Control [2, 11] [%] | also measured
O=C(N/N=C/c1cc(Br)cc(F)c1O)c1ccc(C(F)(F)F)cc1 [Example 412] | 7.7 | 97.8 | 100.0 | 40.4 | 240 to 241 |  |  |  | 
O=C(N/N=C/c1ccc(Cl)c(Cl)c1O)c1ccc(Cl)cc1 [Example 359] | 41.4 | 97.3 | 92.0 | 24.1 | 260 to 262 |  |  |  | 
O=C(N/N=C/c1c(O)cccc1Cl)c1ccccc1 [Example 236] |  |  |  | 4.7 | 247 to 248 | 3.5 | 97.0 | 88.1 | 
O=C(N/N=C/c1ccc(Cl)cc1O)c1ccccc1 [Example 233] |  |  |  | 8.4 |  | 5.6 | 98.1 | 88.1 | 
COc1cccc(/C(C)=N/NC(=O)c2ccccc2C)c1O [Example 300] | 0 | 97.2 | 70.0 | 2.5 | 208 to 209 |  |  |  | 
O=C(N/N=C/c1cc(C(F)(F)F)ccc1O)c1ccc(Cl)cc1 [Example 440] | 2.9 | 100.0 | 98.0 | 23.8 | 252 to 254 |  |  |  | 
O=C(N/N=C/c1ccc(Cl)c(Cl)c1O)c1ccccc1 [Example 238] |  |  |  | 20 | 249 to 252 | 0.5 | 97.6 | 92.5 | 
O=C(N/N=C/c1c(Cl)ccc(Cl)c1O)c1ccc(Cl)cc1 [Example 370] | 3.5 | 97.5 | 91.0 | 23.1 | 271 to 273 |  |  |  | 
O=C(N/N=C/c1cc(Cl)cc(Cl)c1O)c1ccc(Cl)cc1 [Example 68] |  |  |  | 7.1 |  | 15.8 | 97.0 | 75.9 | 
C/C(=N\NC(=O)c1ccccc1Cl)c1cc(Cl)cc(Cl)c1O [Example 67] |  |  |  | 4.2 |  | 2.6 | 91.8 | 75.0 | 
C/C(=N\NC(=O)c1cccc(Cl)c1)c1cc(Cl)cc(Cl)c1O [Example 135] |  |  |  | 20.6 | 245 to 246 | 0.2 | 98.6 | 96.0 | 
C/C(=N\NC(=O)c1ccccc1C)c1cc(Cl)cc(Cl)c1O [Example 137] |  |  |  | 27.2 | 226 to 230 | 4.5 | 98.5 | 74.0 | 
O=C(N/N=C/c1ccc(Cl)cc1O)c1ccc(Cl)cc1 [Example 392] | 15.8 | 97.9 | 46.0 | 22.8 |  |  |  |  | 
COc1cccc(/C(C)=N/NC(=O)c2ccc(Cl)cc2)c1O [Example 305] | 0.5 | 98.3 | 61.0 | 27.1 | 168 to 170 |  |  |  | 
COc1cccc(/C(C)=N/NC(=O)c2cccc(Cl)c2)c1O [Example 304] | 0 | 97.9 | 77.0 | 13.3 | 146 to 148 |  |  |  | 
O=C(N/N=C/c1cc(Cl)ccc1O)c1ccc(Cl)cc1 [Example 172] |  |  |  | 28.7 |  | 13.2 | 97.9 | 27.1 | 
COc1cccc(/C(C)=N/NC(=O)c2cccc(C)c2)c1O [Example 301] | 0 | 97.9 | 82.0 | 3.5 | 121 to 123 |  |  |  | 

Structure (SMILES) | inhibition of growth at 0.05 µg/mL [1, 7] [%] | LEPTNO % Inhn. Plus Copper Observed [1, 8] [%] | TLB % Control [2, 9] [%] | inhibition at 0.1 µg/mL [3] [%] | melting point [°C] | inhibition of growth at 0.05 µg/mL ([1]; compound 0.05 μg/mL) [%] | LEPTNO % Inhn. Plus Copper Observed [1, 10] [%] | TLB % Control [2, 11] [%] | also measured
COc1cccc(/C(C)=N/NC(=O)c2ccccc2Cl)c1O [Example 303] | 0 | 98.0 | 45.0 | 10.6 | 233 to 234 |  |  |  | 
O=C(N/N=C/c1cc(Cl)cc(C(F)(F)F)c1O)c1ccc(Cl)cc1 [Example 381] | 31.8 | 98.6 | 100.0 | 43.9 | 232 to 234 |  |  |  | 
O=C(N/N=C/c1c(O)cccc1Cl)c1ccc(Cl)cc1 [Example 403] | 0 | 97.3 | 97.0 | 12.1 | 273 to 277 |  |  |  | 
C/C(=N\NC(=O)c1cccc(C)c1)c1cc(Cl)cc(Cl)c1O [Example 278] |  |  |  | 16.2 | 221 to 223 | 1.7 | 97.7 | 90.0 | 
O=C(N/N=C/c1c(C(F)(F)F)ccc(Cl)c1O)c1ccc(Cl)cc1 [Example 452] | 12.9 | 100.0 | 100.0 | 19.3 | 236 to 238 |  |  |  | 
O=C(N/N=C/c1cccc(Cl)c1O)c1ccc(Cl)cc1 [Example 428] | 44.1 | 98.4 | 97.0 | 29.9 | 217 to 219 |  |  |  | 
O=C(N/N=C/c1cc(Cl)cc(Br)c1O)c1ccccc1 [Example 151] |  |  |  | 30.9 |  | 11.8 | 97.6 | 83.0 | 
O=C(N/N=C/c1c(Cl)ccc(Cl)c1O)c1cccc(Cl)c1 [Example 369] | 7 | 95.5 | 98.0 |  | 232 to 234 |  |  |  | % Inhn Plus copper Observed [4]: 44.5%; inhibition of growth at 0.05 µg/mL [4]: 0%; % Inhn. Plus copper Observed [5]: 93.6%; inhibition of growth at 1 µg/mL [5]: 3.1%; inhibition at 0.05 µg/mL [6, 12]: 9.3%; inhibition at 0.05 µg/mL [6, 13]: 9.3%; inhibition at 0.05 µg/mL [6, 14]: 93.2%
O=C(N/N=C/c1cc(Cl)cc(Br)c1O)c1ccccc1O [Example 195] |  |  |  | 21.7 |  | 19.2 | 97.9 | 89.5 | 
COc1cccc(/C(C)=N/NC(=O)c2ccc(C)cc2)c1O [Example 302] | 0 | 96.4 | 82.0 | 22.9 | 146 to 148 |  |  |  | 
Cc1ccc(C(=O)N/N=C/c2cc(Br)cc(F)c2O)cc1 [Example 411] | 8.2 | 97.9 | 85.0 | 32.1 | 228 to 229 |  |  |  | 
C/C(=N\NC(=O)c1ccc(Cl)cc1)c1cc(Cl)cc(Cl)c1O [Example 136] |  |  |  | 34.7 | 260 to 262 | 9.7 | 98.6 | 95.0 | 
O=C(N/N=C/c1cc(Cl)cc(Br)c1O)c1ccc(Cl)cc1 [Example 159] |  |  |  | 27.4 |  | 11.4 | 98.5 | 91.9 | 
O=C(N/N=C/c1cc(C(F)(F)F)ccc1O)c1ccccc1O [Example 443] | 14.6 | 100.0 | 83.0 |  | 277 to 281 |  |  |  | % Inhn Plus copper Observed [4]: 91.2%; inhibition of growth at 0.05 µg/mL [4]: 2.4%; % Inhn. Plus copper Observed [5]: 35.3%; inhibition of growth at 1 µg/mL [5]: 10.2%; inhibition at 0.05 µg/mL [6, 12]: 5.8%; inhibition at 0.05 µg/mL [6, 13]: 5.8%; inhibition at 0.05 µg/mL [6, 14]: 92%
C/C(=N\NC(=O)c1ccc(C)cc1)c1cc(Cl)cc(Cl)c1O [Example 279] |  |  |  | 19.9 | 262 to 264 | 5.1 | 98.6 | 96.0 | 
COc1cccc(/C(C)=N/NC(=O)c2ccccc2)c1O [Example 299] | 0 | 97.9 | 74.0 | 18.6 | 146 to 148 |  |  |  | 

From patent US20120010075A1 (priority 2009, published 2012)
